From article PMC12000319, “Proton conductance by human uncoupling protein 1 is inhibited by purine and pyrimidine nucleotides” (The EMBO Journal, 2025)
Several values for one entry are separate records, joined by “and”; a condition that tells them apart may be missing. Identical values can stand only once. Like-named read-outs stand apart in the source and are kept apart here. Values belong to the molecule of their own block, whether it stands above or below them.

What was measured:
UCP1 [1] = target: T1, UCP1 (Homo sapiens, UniProt P25874); experiment: Isothermal titration calorimetry of nucleotide binding; design: isotherm data point (enthalpy change per injection): unit not given here; settings: for isotherm data point (enthalpy change per injection): representative isotherm;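 as to all read-outs here: purified human UCP1 in cacodylate buffer with lauryl maltose neopentyl glycol and cardiolipin, titrated with nucleotides, isotherms fitted by one-site model yielding ΔH, Kd and stoichiometry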
T1 construct: His8 (N, cleaved yes); Factor Xa protease cleavage site (N, cleaved yes); made in house; host or cells: Saccharomyces cerevisiae strain W303.1B
T1 sequence (P25874 1-307): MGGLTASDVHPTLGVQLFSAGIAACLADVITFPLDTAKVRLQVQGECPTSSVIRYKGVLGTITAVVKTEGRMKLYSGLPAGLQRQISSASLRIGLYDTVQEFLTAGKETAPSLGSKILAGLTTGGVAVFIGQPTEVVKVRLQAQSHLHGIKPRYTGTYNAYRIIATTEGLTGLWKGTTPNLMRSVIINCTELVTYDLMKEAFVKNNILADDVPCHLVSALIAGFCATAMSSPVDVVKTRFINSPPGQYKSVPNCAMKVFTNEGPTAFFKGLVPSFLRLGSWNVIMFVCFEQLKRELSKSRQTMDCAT

UCP1 [2] = tested on: UCP1; design: method as in Heaton and Nicholls, 1977; Divakaruni et al, 2012; settings: whole mitochondria; ref Heaton and Nicholls, 1977; Divakaruni et al, 2012; cited from earlier work
UCP1 [3] = target: T1, UCP1; experiment: Differential scanning fluorimetry (nanoDSF) thermal stability shift assay; assay type: binding; settings: for ΔTm at 1000 µM: read-out: thermal shift (ΔTm)
human DIC (SLC25A10) = target: T2, human DIC (SLC25A10) (Homo sapiens, UniProt Q9UBX3); experiment: as above; assay type: binding; settings: 1 mM nucleotide, pH 6.0, single repeats (source data Fig. 4A)
T2 construct: His8 (N, cleaved yes); Factor Xa protease cleavage site (N, cleaved yes); made in house; host or cells: Saccharomyces cerevisiae protease-deficient strain BJ2186
T2 sequence (Q9UBX3 1-287): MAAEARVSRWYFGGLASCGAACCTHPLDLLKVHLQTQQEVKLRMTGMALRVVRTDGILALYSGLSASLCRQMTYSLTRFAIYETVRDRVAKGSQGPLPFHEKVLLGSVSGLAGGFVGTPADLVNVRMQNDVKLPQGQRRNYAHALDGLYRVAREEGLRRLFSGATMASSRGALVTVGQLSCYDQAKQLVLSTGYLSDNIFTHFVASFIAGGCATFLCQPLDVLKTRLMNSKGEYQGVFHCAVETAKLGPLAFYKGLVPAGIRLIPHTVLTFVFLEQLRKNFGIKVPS
Description: UCP1 is phylogenetically related to mitochondrial dicarboxylate carriers, gaining thermogenic properties as a later evolutionary development (Hughes et al, [2009]; Robinson et al, [2008]). The mitochondrial dicarboxylate carrier (DIC, SLC25A10) and oxoglutarate carrier (OGC, SLC25A11) are most closely related to UCP1 (Gaudry et al, [2019]; Hughes et al, [2009]) and share many residues involved in nucleotide binding in UCP1, such as the arginine triplet at the contact points, R92 and Q85 (Jones et al, [2024]). Given the similarity of the central cavity of UCP1, OGC and DIC, we tested whether the dicarboxylate carriers have the ability to bind nucleotides. For this purpose, we purified human DIC and OGC, and tested whether nucleotides were able to generate a thermostability shift, as observed for their physiological substrates (Pyrihová et al, [2024]). However, all tested nucleotides caused a negligible shift with both DIC or OGC at all pH values tested between 6.0 and 8.0 (Fig. 4A; Appendix Fig. S5). Thus, despite having many residues in common (Fig. 4B–D), UCP1 has evolved to have a few specific residues that allow high-affinity binding of nucleotides without a strong selection for nucleobase.
Differential scanning fluorimetry (nanoDSF) (Alexandrov et al, [2008]) was carried out with 2 µg UCP1, DIC or OGC protein (100 mM MES/HEPES, pH range 6.0–8.0, 25 mM NaCl, 1 mM TCEP, 0.01% lauryl maltose neopentyl glycol and 0.01 mg/mL tetraoleoyl cardiolipin) and, when required, 1 mM nucleotide, as indicated. The proteins have the following number of tryptophans: UCP1 (two); OGC (two); DIC (one). The samples were loaded into nanoDSF-grade standard glass capillaries. The temperature was increased by […] every minute from 25 to 95 °C, the intrinsic fluorescence was measured in a Prometheus NT.48 nanoDSF device, and the apparent Tm was calculated with the PR.ThermControl software (NanoTemper Technologies).

[4] = target: T3, human uncoupling protein 1 (human, UniProt P25874); experiment: cryo-EM structure; UCP1, PMb65 and PMb71 mixed stoichiometrically, overnight at 4 °C; complex separated by SEC (20 mM MES pH 6.0, 150 mM NaCl, 0.02% lauryl maltose neopentyl glycol, 0.02 mg/mL tetraoleoyl cardiolipin, 1 mM TCEP); 2 mM UTP and 2 mM D-maltose added; 3.03 Å; settings: both partners purified
T3 construct: human uncoupling protein 1 (UCP1, SLC25A7), Uniprot P25874; Detergent-solubilised, with tetraoleoyl cardiolipin; also called UCP1; SLC25A7; source: Saccharomyces cerevisiae W303.1B, purified from mitochondria (Ni Sepharose, on-column Factor Xa cleavage); not shown: His8, N-terminal, cleaved

[5] = ITC, pH 6.0, 20 °C, mean ± standard deviation of three biological repeats (Fig. 2A-E)
[6] = ITC, single biological repeats (source data Fig. 2F)

Kd (UCP1 [1]; [5]): 2.86 ± 0.49 µM | Kd (UCP1 [1]; [6]): 3.37 µM and 2.82 µM and 2.4 µM
Molecule: O=c1ccn([C@@H]2O[C@H](COP(=O)(O)OP(=O)(O)OP(=O)(O)O)[C@@H](O)[C@H]2O)c(=O)[nH]1 [UTP, uridine triphosphate]

binding affinity to UCP1 (in words) (UCP1 [1]; ITC): lowest affinity | Kd (UCP1 [1]; [5]): 4.85 ± 0.69 µM | Kd (UCP1 [1]; [6]): 5.47 µM and 4.96 µM and 4.11 µM | isotherm data point (enthalpy change per injection) (UCP1 [1]; Molar ratio (Nucleotide/UCP) 0.120417, pH 6.0, 20 °C): -22.2743 | isotherm data point (enthalpy change per injection) (UCP1 [1]; Molar ratio (Nucleotide/UCP) 0.181226, pH 6.0, 20 °C): -21.186 | isotherm data point (enthalpy change per injection) (UCP1 [1]; Molar ratio (Nucleotide/UCP) 0.242439, pH 6.0, 20 °C): -19.9722 | isotherm data point (enthalpy change per injection) (UCP1 [1]; Molar ratio (Nucleotide/UCP) 0.304059, pH 6.0, 20 °C): -20.0539 | isotherm data point (enthalpy change per injection) (UCP1 [1]; Molar ratio (Nucleotide/UCP) 0.366087, pH 6.0, 20 °C): -20.6988 | isotherm data point (enthalpy change per injection) (UCP1 [1]; Molar ratio (Nucleotide/UCP) 0.428528, pH 6.0, 20 °C): -18.255 | isotherm data point (enthalpy change per injection) (UCP1 [1]; Molar ratio (Nucleotide/UCP) 0.491383, pH 6.0, 20 °C): -16.7607 | isotherm data point (enthalpy change per injection) (UCP1 [1]; Molar ratio (Nucleotide/UCP) 0.554656, pH 6.0, 20 °C): -16.5202 | isotherm data point (enthalpy change per injection) (UCP1 [1]; Molar ratio (Nucleotide/UCP) 0.618348, pH 6.0, 20 °C): -14.6191 | isotherm data point (enthalpy change per injection) (UCP1 [1]; Molar ratio (Nucleotide/UCP) 0.682464, pH 6.0, 20 °C): -13.3617 | isotherm data point (enthalpy change per injection) (UCP1 [1]; Molar ratio (Nucleotide/UCP) 0.747006, pH 6.0, 20 °C): -10.6677 | isotherm data point (enthalpy change per injection) (UCP1 [1]; Molar ratio (Nucleotide/UCP) 0.811976, pH 6.0, 20 °C): -10.8499 | isotherm data point (enthalpy change per injection) (UCP1 [1]; Molar ratio (Nucleotide/UCP) 0.877378, pH 6.0, 20 °C): -10.2913 | isotherm data point (enthalpy change per injection) (UCP1 [1]; Molar ratio (Nucleotide/UCP) 0.943214, pH 6.0, 20 °C): -8.027 | isotherm data point (enthalpy change per injection) (UCP1 [1]; Molar ratio (Nucleotide/UCP) 1.00949, pH 6.0, 20 °C): -6.97 | isotherm data point (enthalpy change per injection) (UCP1 [1]; Molar ratio (Nucleotide/UCP) 1.0762, pH 6.0, 20 °C): -6.038 | isotherm data point (enthalpy change per injection) (UCP1 [1]; Molar ratio (Nucleotide/UCP) 1.14336, pH 6.0, 20 °C): -5.024 | isotherm data point (enthalpy change per injection) (UCP1 [1]; Molar ratio (Nucleotide/UCP) 1.21096, pH 6.0, 20 °C): -4.446 | isotherm data point (enthalpy change per injection) (UCP1 [1]; Molar ratio (Nucleotide/UCP) 1.27901, pH 6.0, 20 °C): -2.802 | isotherm data point (enthalpy change per injection) (UCP1 [1]; Molar ratio (Nucleotide/UCP) 1.34751, pH 6.0, 20 °C): -2.027 | isotherm data point (enthalpy change per injection) (UCP1 [1]; Molar ratio (Nucleotide/UCP) 1.41647, pH 6.0, 20 °C): -1.98 | isotherm data point (enthalpy change per injection) (UCP1 [1]; Molar ratio (Nucleotide/UCP) 1.48589, pH 6.0, 20 °C): -0.1226 | isotherm data point (enthalpy change per injection) (UCP1 [1]; Molar ratio (Nucleotide/UCP) 1.55577, pH 6.0, 20 °C): -0.8262 | isotherm data point (enthalpy change per injection) (UCP1 [1]; Molar ratio (Nucleotide/UCP) 1.62611, pH 6.0, 20 °C): -0.604 | isotherm data point (enthalpy change per injection) (UCP1 [1]; Molar ratio (Nucleotide/UCP) 1.69692, pH 6.0, 20 °C): -1.2037 | isotherm data point (enthalpy change per injection) (UCP1 [1]; Molar ratio (Nucleotide/UCP) 1.76819, pH 6.0, 20 °C): -0.3877 | isotherm data point (enthalpy change per injection) (UCP1 [1]; Molar ratio (Nucleotide/UCP) 1.83995, pH 6.0, 20 °C): 0.4921 | isotherm data point (enthalpy change per injection) (UCP1 [1]; Molar ratio (Nucleotide/UCP) 1.91217, pH 6.0, 20 °C): -0.1525 | isotherm data point (enthalpy change per injection) (UCP1 [1]; Molar ratio (Nucleotide/UCP) 1.98488, pH 6.0, 20 °C): -0.1288 | temperature shift (ΔTm) (UCP1 [3]; 1 mM nucleotide, pH 6.0, detergent-solubilised UCP1, mean of three biological repeats): 12.5 °C | ΔTm at 1000 µM (UCP1 [3]; pH 6, 1 mM nucleotide, pH 6.0, single repeats (source data Fig. 1D)): 12.3 °C | ΔTm at 1000 µM (UCP1 [3]; pH 6.5, 1 mM nucleotide, pH 6.5, single repeats (source data Fig. 1D)): 7.9 °C | ΔTm at 1000 µM (UCP1 [3]; pH 7, 1 mM nucleotide, pH 7.0, single repeats (source data Fig. 1D)): 4.4 °C | change in apparent melting temperature (ΔTm) of hDIC (human DIC (SLC25A10)): 0.0
Molecule: Nc1ccn(C2OC(COP(=O)(O)OP(=O)(O)OP(=O)(O)O)C(O)C2O)c(=O)n1 (centres unmarked) [CTP]
competition with GDP binding (UCP1 [2]): unable to displace the binding of GDP

binding result [4]: binds
B1: Pro-macrobody PMb65 (VHH)
VHH: QVQLVESGGGLVQAGGSLRLSCAPSGRTSSTYTMGWFRQAPGKEREFVAAISWTGTPYYADSVKGRFTISRDNAKNTVYLQMNSLKPEDTAVYYCAAARPGLFIFVSDYARTAKYDYWGQGTQVTVPP
notes: llama nanobody CA9865; Expressed from the vector pBXNPHM3 (Addgene 110099); also called CA9865; source: E. coli MC1061, purified (Ni-NTA, 3C cleavage, Strep-Tactin XT); not shown: His-tagged MBP, N-terminal, cleaved
